# Biological target: T1, GDP-KRAS G12V (Homo sapiens, UniProt P01116, G12V)
# T1 construct: GDP-loaded HIS-KRAS(G12V, aa 1-169)
# Assay: SOS1 catalyzed nucleotide exchange assay (TR-FRET)
# Assay type: biochemical
# Conditions: GDP-loaded HIS-KRAS(G12V, aa 1-169) 10-15 nM; 0.5 μM SOS1 ExD; 80 nM BODIPY FL GTP; 15 min pre-incubation, 4 hours at 25 °C
# Description: GDP-loaded HIS-KRAS(G12V, aa 1-169) was pre-incubated with a compound in the presence of 10 nM GDP in a 384-well plate (Greiner) for 15 min, then purified SOS1 ExD (Flag tag, aa 564-1049), BODIPY™ FL GTP (Invitrogen) and MAb (monoclonal antibody) Anti 6HIS-Tb cryptate Gold (Cisbio) were added to the assay wells (Final concentration: 10-15 nM GDP-loaded HIS-KRAS(G12V), 5 nM GDP, 0.5 μM SOS1 ExD, 80 nM BODIPY™ FL GTP, 52.5 ng/mL MAb Anti 6HIS-Tb cryptate Gold) and incubated for 4 hours at 25 °C. Wells containing same percent of DMSO served as vehicle control, and wells without KRAS served as low control. TR-FRET signals were read on Tecan Spark multimode microplate reader. The parameters were F486: Excitation 340 nm, Emission 486 nm, Lag time 100 μs, Integration time 200 μs; F520: Excitation 340 nm, Emission 520 nm, Lag time 100 μs, Integration time 200 μs. TR-FRET ratios for each individual wells were calculated by equation: TR-FRET ratio=(Signal F520/Signal F486)*10000. The percent of activation of compounds treated wells were normalized between vehicle control and low control (% Activation=(TR-FRET ratioCompound treated−TR-FRET ratioLow control)/(TR-FRET ratioVehicle control−TR-FRET ratioLow control)*100%). Then the data were analyzed either by fitting a 4-parameter logistic model or by Excel to calculate IC50 values.
# T1 sequence (P01116 1-169 isoform P01116-2 G12V): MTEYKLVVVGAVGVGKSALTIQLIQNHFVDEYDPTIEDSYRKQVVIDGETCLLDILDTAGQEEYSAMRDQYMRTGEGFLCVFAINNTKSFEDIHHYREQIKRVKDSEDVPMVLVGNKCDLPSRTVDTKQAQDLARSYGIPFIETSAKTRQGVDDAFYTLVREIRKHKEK
row,Structure (SMILES),IC50 [nM]
1,C#Cc1c(F)ccc2cc(O)cc(-c3nc4c5c(nc(OC[C@@]67CCCN6C[C@H](F)C7)nc5c3F)N(C)C3CC3N4C)c12 (mixture of isomers) [Compound 2],26.4
2,C#Cc1c(F)ccc2cc(O)cc(-c3nc4c5c(nc(OC[C@@]67CCCN6C[C@H](F)C7)nc5c3F)N(C)C3COCC3N4C)c12 (mixture of isomers) [Compound 3],0.757
3,C#Cc1c(F)ccc2cc(O)cc(-c3nc4c5c(nc(OCC67CCCN6CC(F)C7)nc5c3F)N(C)C3CCCC3N4C)c12 (centres unmarked) [Compound 1],4.38
4,C#Cc1c(F)ccc2cc(O)cc(-c3nc4c5c(nc(OC[C@@]67CCCN6C[C@H](F)C7)nc5c3F)N(C)[C@H]3COC[C@H]3N4)c12 [Compound 4],1.35
5,C#Cc1c(F)ccc2cc(N)cc(-c3nc4c5c(nc(OCC67CCCN6CC(F)C7)nc5c3F)N(C)C3COCC3N4C)c12 (centres unmarked) [Compound 5],5.58

# Source: US20260365672A1, “K-RAS MUTANT PROTEIN INHIBITORS” (Jacobio Pharmaceuticals Co., Ltd., priority 2022, published 2026)
